Assay results taken from paper PMC4694998, “Suppression of β-catenin/TCF transcriptional activity and colon tumor cell growth by dual inhibition of PDE5 and 10” (Oncotarget, 2015).

Key:
[1] = target: T1, purified ovine COX-1 (Ovis aries, UniProt P05979); assay: COX-1 colorimetric assay; format: biochemical
T1 construct: purchased Cayman
T1 sequence (P05979 25-600): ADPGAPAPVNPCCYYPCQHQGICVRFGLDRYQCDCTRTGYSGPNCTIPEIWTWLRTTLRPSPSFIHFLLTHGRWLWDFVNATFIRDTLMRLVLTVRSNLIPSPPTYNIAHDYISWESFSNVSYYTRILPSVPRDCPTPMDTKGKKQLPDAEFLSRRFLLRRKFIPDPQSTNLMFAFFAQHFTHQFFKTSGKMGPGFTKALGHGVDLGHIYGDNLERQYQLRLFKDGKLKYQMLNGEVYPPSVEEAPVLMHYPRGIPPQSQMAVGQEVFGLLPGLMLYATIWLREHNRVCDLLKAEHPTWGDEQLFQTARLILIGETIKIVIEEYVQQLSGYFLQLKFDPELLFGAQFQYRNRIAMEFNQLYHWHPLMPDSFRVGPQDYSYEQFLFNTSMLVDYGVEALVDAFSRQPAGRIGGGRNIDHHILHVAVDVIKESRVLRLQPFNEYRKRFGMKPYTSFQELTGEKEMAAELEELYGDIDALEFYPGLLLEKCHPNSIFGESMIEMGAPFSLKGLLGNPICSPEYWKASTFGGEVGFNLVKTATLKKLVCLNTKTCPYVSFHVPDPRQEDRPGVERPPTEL
Method: COX-1 and COX-2 activities were measured using purified ovine COX-1 and COX-2 with colorimetric assay kits obtained from Cayman as previously reported. The activities of COX-1 and COX-2 were measured after the addition of arachidonic acid and incubation at 25°C for 5 min by absorbance at 590 nm as specified by the manufacturer.
The IC50 values were determined as described previously. All experiments were repeated a minimum of three times to determine the reproducibility of the results. All error bars represent standard error of the mean (SEM). Statistical analysis of differences between samples was performed using the Student’s t-test. A P value of < 0.05 was considered statistically significant.

[2] = test system: HCT116 colon tumor cells; assay: Growth assay (Cell Titer Glo), HCT116; format: cell-based, human; conditions: Homo sapiens, HCT-116; 72 hours of treatment; read-out: HCT116 growth IC50
Method: All cell lines were expanded upon delivery, and numerous aliquots of low passage cells were preserved in liquid N2. Cells were passaged no longer than 2 months. Tumor cell lines obtained from ATCC were characterized by STR profiling as performed by ATCC. The NCM460 line was characterized by INCELL as described previously (e.g. tumorigenicity testing). No additional re-authentication of the cell lines was performed except for experimental reasons (e.g. confirmation of cell doubling time, morphology, sensitivity to SS, PDE5/10 expression levels, etc). Cells were plated in 96-well microtiter plates at a density of 5,000 cells per well. For drug treatment, cells were treated with compound or vehicle, and incubated at 37°C for 72 hours. […] For siRNA assays, cells were transfected with siRNA under the same condition described above. The effect of treatment on cell growth was measured using the Cell Titer Glo Assay as specified by the manufacturer (Promega). The IC50 values were determined as described previously. All experiments were repeated a minimum of three times to determine the reproducibility of the results. All error bars represent standard error of the mean (SEM). Statistical analysis of differences between samples was performed using the Student’s t-test.

[3] = test system: intracellular cGMP in HCT116 colon tumor cells; assay: cGMP assay (EIA), HCT116; format: cell-based, human; conditions: 45 min of treatment
Method: (§1) Cells were plated at a density of 1 × 10^6 cells per 10 cm tissue culture dish, incubated for 48 hours, and treated with ADT-094 or vehicle control. After 45 min of treatment, cells were lysed and assayed for cGMP content using the cGMP Direct Biotrak EIA kit (GE Healthcare Life Sciences). The assay was done according to the manufacturer’s specifications.

[4] = test system: intracellular cGMP in normal colonocytes; assay: cGMP assay (EIA), colonocytes; format: cell-based, human; conditions: 45 min of treatment
Method: as §1

[5] = test system: β-catenin signaling in HCT116 colon tumor cells; assay: Western blotting of β-catenin, cyclin D1, survivin, HCT116; format: cell-based, human
Method: (§2) Western blotting was performed as described previously. Cells were treated with ADT-094 or vehicle for 8 hours before cell lysates were collected.

[6] = test system: PKG activity (phospho-Ser239 VASP) in HCT116 colon tumor cells; assay: Western blotting of VASP phosphorylation, HCT116; format: cell-based, human
Method: as §2

[7] = test system: HCT116 colon tumor cells; assay: Cell proliferation assay (EdU incorporation, flow cytometry); format: cell-based, human; conditions: 24 hours treatment with 0.1 μmol/L
Method: The antiproliferative activity of ADT-094 was determined by measuring EdU (5-ethynyl-2′-deoxyuridine) incorporation during DNA synthesis. Cells were plated at a density of 1.5 × 10^6 cells per 10 cm tissue culture dish and incubated overnight at 37°C. After growing the cells in serum-free media overnight, the cells were treated with ADT-094 or vehicle in medium supplemented with 10% serum for 6 hours. A final concentration of 10 μmol/L EdU was added to each dish and incubated for an additional 18 hours. Cells were harvested and analyzed using the Click-iT EdU Alexa Fluor 488 Proliferation Assay (Invitrogen) according to the manufacturer’s specifications. The percentage of proliferating cells was quantified using a BD FACSCalibur flow cytometer.

[8] = test system: HCT116 colon tumor cells; assay: Apoptosis assay (Caspase 3/7 Glo), HCT116; format: cell-based, human; conditions: caspase-3 and -7, 6 hours of treatment
Method: Cells were plated in 96-well microtiter plates at a density of 10,000 cells per well, and allowed to attach overnight. Cells were treated with ADT-094 or vehicle, and incubated at 37°C for 6 hours. All apoptosis assays were done in 5% serum using either tumor cells or normal colonocytes. The induction of apoptosis caused by treatment was determined using Caspase 3/7 Glo Assay (Promega), which is a luminescent assay that measures substrate cleavage by caspases-3 and -7. The assay was done according to manufacturer’s specifications.

COc1ccc2c(c1)C(CC(=O)NCc1ccco1)=C(C)/C2=C/c1cc(OC)c(OC)c(OC)c1 [ADT-094, (Z)-N-(furan-2-ylmethyl)-2-(5-methoxy-2-methyl-1-(3,4,5-trimethoxybenzylidene)-1H-inden-3-yl) acetamide]
IC50 ([1]; Figure 3A): 81 µM | COX-1 inhibitory activity ([1]; in words): essentially lacks | IC50 [2]: 0.1 µM | intracellular cGMP levels [3]: significantly increased | intracellular cGMP levels [4]: did not significantly affect | levels of cyclin D1 and survivin [5]: also decreased | β-catenin levels [5]: dose-dependent decrease | phospho-Ser239 VASP levels (PKG activity) [6]: increased | proliferation (EdU incorporation) [7]: inhibited the proliferation | caspase activity (apoptosis) [8]: increased caspase activity
